# Source: patent publication US20130189347A1, “DISEASE TREATMENT DRUG” (priority 2010, published 2013)
# How the values were obtained:
# B16 melanoma cells [1] = test: Early-stage cancer: rate of increase in tumor volume in B16 melanoma-transplanted mice; assay type: in vivo, ICR mice; settings: CDDP 0.9 mM, 0.2 ml/mouse/dose via tail vein
# Description: Five female, six-week-old IRC mice were assigned per group.
# iron porphyrin complex/PLLA60wt%-F88 micelles (polymer capsule, 5 mM/0.7 wt %) were used.
# As the sample drug (concentration) of the comparative example, CDDP (0.9 mM) was used.
# (§1) B16 melanoma cells were used.
# The amount of cancer cells injected was 1×10^5/mouse/0.05 ml, which is 1/10 that for end-stage cancer.
# (§2) Anchoring of the cancer was confirmed on the 10th day after cancer cell transplantation. The mice were separated into five mice each for the required number of groups (three groups: two groups for the sample drugs and one control group). At the same time, the short diameter and the long diameter of the cancer cell volume in each mouse were measured every two days using calipers. The following equation was calculated:
# (§3) [tumor volume]=½×[long diameter]×[short diameter]^2
# B16 melanoma cells [2] = test: End-stage cancer: rate of increase in tumor volume in B16 melanoma-transplanted mice; assay type: in vivo, C57BL/6CrSlC mice
# Description: iron porphyrin complex/pH-sensitive liposomes (5 mM/36 mM) and iron porphyrin complex/DPPC-PEG liposomes (5 mM/36 mM) were used […]
# as §1
# as §2, with “groups (four” for “groups (three”, “groups: three” for “groups: two”
# as §3
# [3] = End-stage cancer experiment: weight fluctuation, death and side effects
# Description: Five female, six-week-old C57BL/6CrSlC mice were assigned per group.
# B16 melanoma dispersed in phosphate buffered saline (PBS) was injected into the foot pads (sole) of the mice (C57BL/6, female, six-weeks-old), and cancer was transplanted. The amount of cancer cells injected was 1×10^6/mouse/0.05 ml. The site of injection was within the limited area of the foot pad, in an environment where numerous fine blood vessels, such as capillaries, are present.
# In addition, administration of the sample drugs (administered amount: 0.1 ml/mouse/dose) was started on the 13th day after cancer cell transplantation. Drug administration was conducted a total of four times, via tail vein every four days. The weight of each mouse was measured every two days.
SMILES,suppression of increase in tumor volume (B16 melanoma cells [1]),observation of the transplanted foot (B16 melanoma cells [2]),course of tumor volume (B16 melanoma cells [2]; four days after administration of the drug),"mice that died ([3]; during 20 days of observation, five mice per group, MMC 0.9 mM, 0.5 mM)","weight increase and decrease (weight fluctuation) ([3]; end-stage cancer, weight measured every two days, FIG. 5)"
"[NH2][Pt]([NH2])([Cl])[Cl] [CDDP, Cisplatin]",about ten,,,,
"CO[C@@]12[C@H](COC(N)=O)C3=C(C(=O)C(C)=C(N)C3=O)N1C[C@@H]1N[C@@H]12 [MMC, mitomycin]",,necrosis occurred in the foot itself,sudden increase in tumor volume,two,severe weight fluctuations
